US20110256236A1 (priority 2010, published 2011)
Read-outs that look alike come from different tables or passages of the source.

Key:
[1] = tested on: KG-1a cells; conditions: 48 hours
Experimental: The KG-1a cells, which are an early phenotype of human acute myeloid leukemia (American Type Culture Collection, Manassas, Va.), were grown in complete growth medium [Iscove's Modified Dulbeco's Medium (American Type Culture Collection, Manassas, Va.)] supplemented with 20% fetal bovine serum (Sigma-Aldrich, UK) and 1% Penicillin-Streptomycin (GIBCO Invitrogen Corporation, Carlsbad, Calif.) at 37° C. in a humidified 5% CO2 incubator.
The KG-1a cells were cultured for 48 hours in 12-well tissue culture plates, each containing complete growth medium at a concentration of 2×10^6 cells 1 ml, and each well contained a total volume of two milliliters. Thalidomide (TOCRIS Bioscience, Ellisville, Mo.) was added at a concentration of 5 mg/L whether used alone or in combination with other chemotherapeutic agents. Interleukin-2 (Proleukin®, Aldesleuken for injection) (CHIRON Therapeutics, Emeryville, Calif.) was added at a concentration of 200 IU/ml whether used alone or in combination with thalidomide or arsenic trioxide. Arsenic trioxide (Sigma-Aldrich, Inc., St. Louis, Mo.) was added at concentrations of 2 μM and 4 μM with and without 100 μM of ascorbic acid in the first flow cytometry study, and at 4 μM in the rest of the studies either alone or combined with thalidomide and interleukin-2. A control culture containing neither thalidomide nor interleukin-2 nor arsenic trioxide was set up in conditions otherwise identical. All the control and treated cultures were set in duplicate and incubated for 48 hours at 37° C. in a humidified 5% CO2 incubator.
The detection of apoptosis and necrosis by Annex in V-FITC assay using flow cytometric analysis was carried out as described in the Annexin V-FITC Apoptosis Detection Kit (BioVision, Inc., Mountain View, Calif.) manual. Staurosporine (Sigma-Aldrich, Inc., St. Louis, Mo.) was used as a positive control at a concentration of 10 μM and was incubated only for 24 hours with the cells. Briefly, after the KG-1a cells were incubated for 48 hours, they were harvested by centrifugation at 1,300 RPM for five minutes. Cells were resuspended in 500 μl of 1× binding buffer. Then 5 μl of Annexin V-FITC and 5 μl of propidium iodide (PI) were added to all tubes (except the negative control which contained no staining and no treatment; for the Annexin V-FITC controls only the Annexin V-FITC was added; and for the Propidium Iodide control only PI was added). All tubes were incubated at room temperature for five minutes in the dark.
Results were subjected to one way ANOVA. Statistical significant differences between means was set at p<0.05.

[2] = tested on: APL cell line NB4; parameters: unit not given here; conditions: APL studies, cited from earlier work
[3] = biological target: T1, PML/RAR-α fusion protein (Homo sapiens, UniProt P10276+P29590); parameters: unit not given here; conditions: NB4 cells; cited from earlier work
T1 construct: host or cells: NB4 cells (endogenous t(15;17) fusion)
T1 sequence (P29590+P10276 with tags, fused parts or gaps): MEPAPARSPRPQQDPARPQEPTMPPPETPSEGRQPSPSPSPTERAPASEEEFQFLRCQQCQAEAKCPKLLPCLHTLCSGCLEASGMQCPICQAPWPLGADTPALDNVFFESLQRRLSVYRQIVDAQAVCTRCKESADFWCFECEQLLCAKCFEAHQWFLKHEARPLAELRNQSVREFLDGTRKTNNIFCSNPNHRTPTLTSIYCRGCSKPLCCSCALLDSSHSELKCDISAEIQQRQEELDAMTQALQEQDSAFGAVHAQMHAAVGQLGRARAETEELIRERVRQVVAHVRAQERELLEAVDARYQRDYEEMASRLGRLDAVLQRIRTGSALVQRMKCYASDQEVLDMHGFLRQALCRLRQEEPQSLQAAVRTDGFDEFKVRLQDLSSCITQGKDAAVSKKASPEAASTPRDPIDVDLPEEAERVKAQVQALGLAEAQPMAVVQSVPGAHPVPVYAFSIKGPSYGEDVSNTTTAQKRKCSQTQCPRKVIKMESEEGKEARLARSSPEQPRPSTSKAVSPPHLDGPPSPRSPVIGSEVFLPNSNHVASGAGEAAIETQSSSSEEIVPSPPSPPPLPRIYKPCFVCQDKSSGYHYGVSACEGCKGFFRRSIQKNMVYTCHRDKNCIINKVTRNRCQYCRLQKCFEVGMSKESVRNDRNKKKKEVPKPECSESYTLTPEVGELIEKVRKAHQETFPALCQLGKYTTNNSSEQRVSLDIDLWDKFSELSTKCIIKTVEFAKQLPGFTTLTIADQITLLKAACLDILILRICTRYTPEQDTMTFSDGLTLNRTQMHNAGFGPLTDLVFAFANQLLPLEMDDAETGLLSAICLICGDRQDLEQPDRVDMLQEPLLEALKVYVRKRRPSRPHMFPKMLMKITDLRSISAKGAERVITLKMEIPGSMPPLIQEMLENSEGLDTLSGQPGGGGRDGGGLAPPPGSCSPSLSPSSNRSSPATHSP

[4] = tested on: MCF-7; conditions: MCF-7 cell line; Du et al. 2005; read-out: IC50 (inhibitory concentration of 50%), tumor growth; cited from earlier work
[5] = tested on: HL-60; conditions: HL-60 cell line; Du et al. 2005; read-out: IC50 (inhibitory concentration of 50%), tumor growth; cited from earlier work
[6] = As2O3 2 μM, with or without ascorbic acid 100 μM
[7] = As2O3 4 μM, with or without ascorbic acid 100 μM
[8] = thalidomide 5 mg/L, As2O3 4 μM, IL-2 200 IU/ml, alone or combined

Row | Molecule | % Early apoptosis [1, 6] | % Late apoptosis [1, 6] | % Live Cells [1, 6] | % Necrotic Cells [1, 6] | % Early apoptosis [1, 7] | % Late apoptosis [1, 7] | % Live Cells [1, 7] | % Necrotic Cells [1, 7] | % Early apoptosis [1, 8] | % Late apoptosis [1, 8] | % Necrosis [1, 8] | cytotoxic effect (in words) [1, 8] | % Late apoptosis ([1]; thalidomide 5 mg/L, As2O3 4 μM, IL-2 200 IU/ml, alone or combined, listed as Arsenic trioxide) | concentrations inducing partial differentiation ([2]; low concentrations) | concentrations inducing apoptosis ([2]; relatively high concentrations) | concentrations inducing degradation of PML/RAR-α (and wild type PML) [3] | % Late apoptosis ([1]; thalidomide 5 mg/L, As2O3 4 μM, IL-2 200 IU/ml, alone or combined, listed as thalidomide) | IC50 [4] | IC50 [5]
1 | arsenic trioxide [As2O3] | 14.50% | 6.88% | 75.94% | 2.68% | 20.87% | 8.31% | 69.56% | 1.26% | 10.095% | 16.965% | 0.59% | modest cytotoxic effect | 16.97% | 0.1-0.5 | 0.5-2.0 | 0.5-2.0 | – | – | –
2 | O=C1CCC(N2C(=O)c3ccccc3C2=O)C(=O)N1 (stereo not drawn) [Thalidomide, α-(N-phthalimido) glutarimide] | – | – | – | – | – | – | – | – | 7.92% | 49.385% | 1.155% | – | – | – | – | – | 49.39% | 18.4 ± 2.34 µM | 22.1 ± 2.15 µM
